In brackets after ≈: the same amount, converted by molar mass. Activity calls are given as the source filed them. The rule behind the calls is not given here.

Series [1] addresses Metabotropic glutamate receptor 3 (Rattus norvegicus, UniProt P31422). Put plainly: Negative allosteric modulation of rat mGlu3 receptor transfected in human TREX cells assessed as inhibition of glutamate-induced calcium mobilization after 2.5 mins. In kind it is functional, cell-based.
The target of series [2] is Metabotropic glutamate receptor 2 (Rattus norvegicus, UniProt P31421). Put plainly: Negative allosteric modulation of rat mGlu2 receptor transfected in HEK293 cells assessed as inhibition of glutamate-induced calcium mobilization after 2.5 mins. In kind it is functional, cell-based.
In series [3] the target is Metabotropic glutamate receptor 3 (Rattus norvegicus) (UniProt P31422). Put plainly: Negative allosteric modulation of rat mGlu3 receptor transfected in human TREX cells after 2.5 mins by calcium mobilization assay relative to glutamate. In kind it is functional, cell-based. Also on record: concentration or dose not given beside the values.
The test system of series [4] is Plasma. Put plainly: Fraction unbound in rat plasma at 5 uM after 4 hrs by LC/MS/MS analysis. In kind it is ADME, cell-free.
A further series relates to Liver microsomes. Put plainly: Metabolic stability in human liver microsomes at 1 uM. Format: ADME, Microsome.
Series [5] concerns the target Metabotropic glutamate receptor 6 (Homo sapiens) (UniProt O15303). Put plainly: Negative allosteric modulation of mGlu6 receptor (unknown origin) up to 30 uM.
Series [6] concerns Plasma. The experiment in a line: Plasma protein binding in mouse at 5 uM after 4 hrs by LC/MS/MS analysis. Format: ADME, cell-free.
The target in a further series is T1, Cytochrome P450 1A2 (Homo sapiens, UniProt P05177).
T1 sequence (P05177 whole entry): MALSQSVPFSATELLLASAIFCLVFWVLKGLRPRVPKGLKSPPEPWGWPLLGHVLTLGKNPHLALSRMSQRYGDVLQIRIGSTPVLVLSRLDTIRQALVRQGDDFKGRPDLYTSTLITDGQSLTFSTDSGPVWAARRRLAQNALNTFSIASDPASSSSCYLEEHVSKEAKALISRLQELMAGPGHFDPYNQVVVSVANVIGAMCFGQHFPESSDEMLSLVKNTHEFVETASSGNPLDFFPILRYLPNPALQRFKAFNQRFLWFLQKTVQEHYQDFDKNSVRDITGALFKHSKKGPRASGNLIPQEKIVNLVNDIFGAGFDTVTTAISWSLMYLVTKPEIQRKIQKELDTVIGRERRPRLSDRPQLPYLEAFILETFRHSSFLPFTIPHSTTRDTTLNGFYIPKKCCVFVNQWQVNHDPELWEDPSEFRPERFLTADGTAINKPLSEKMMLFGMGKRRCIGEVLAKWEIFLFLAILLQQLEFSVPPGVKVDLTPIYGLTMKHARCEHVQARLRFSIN
The experiment in a line: Inhibition of CYP1A2 in human liver microsomes using phenacetin as substrate incubated for 15 mins prior to NADPH addition measured after 8 mins by LC/MS/MS analysis. In kind it is ADME, Microsome.

Series [7] deals with Plasma. The experiment in a line: Fraction unbound in human plasma at 5 uM after 4 hrs by LC/MS/MS analysis. In kind it is ADME, cell-free.
In the next series the target is Cytochrome P450 2D6 (Homo sapiens, UniProt P10635). Put plainly: Inhibition of CYP2D6 in human liver microsomes using dextromethorphan as substrate incubated for 15 mins prior to NADPH addition measured after 8 mins by LC/MS/MS analysis. Format: ADME, Microsome.
Series [8] addresses Metabotropic glutamate receptor 3 (Rattus norvegicus) (UniProt P31422). The experiment in a line: Negative allosteric modulation of rat mGlu3 receptor transfected in human TREX cells assessed as inhibition of glutamate/LY379268-induced calcium mobilization. Format: functional, cell-based.
A further series deals with Cytochrome P450 2C9 (Homo sapiens, UniProt P11712). The experiment in a line: Inhibition of CYP2C9 in human liver microsomes using diclofenac as substrate incubated for 15 mins prior to NADPH addition measured after 8 mins by LC/MS/MS analysis. In kind it is ADME, Microsome.
Series [9] concerns the target Metabotropic glutamate receptor 4 (Homo sapiens) (UniProt Q14833). The experiment in a line: Negative allosteric modulation of mGlu4 receptor (unknown origin) up to 30 uM.
The subject of series [10] is Plasma. Put plainly: Plasma protein binding in human at 5 uM after 4 hrs by LC/MS/MS analysis. Format: ADME, cell-free.
Series [11] in a line: Solubility of the compound in PBS. To be noted: buffer. In kind it is physicochemical.
The target of series [12] is Metabotropic glutamate receptor 7 (Homo sapiens) (UniProt Q14831). The experiment in a line: Negative allosteric modulation of mGlu7 receptor (unknown origin) up to 30 uM.
The target of series [13] is Metabotropic glutamate receptor 3 (Rattus norvegicus) (UniProt P31422). Put plainly: Negative allosteric modulation of rat mGlu3 receptor transfected in human TREX cells assessed as non-competitive decrease in glutamate EC80. Format: cell-based.
Series [14] addresses Metabotropic glutamate receptor 1 (Homo sapiens) (UniProt Q13255). Put plainly: Negative allosteric modulation of mGlu1 receptor (unknown origin) up to 30 uM.
The target of series [15] is 5-hydroxytryptamine receptor 2B (Homo sapiens) (UniProt P41595). Put plainly: Binding affinity to human 5-HT2B receptor at 10 uM by radioligand displacement assay relative to control.
Series [16] deals with Metabotropic glutamate receptor 5 (Homo sapiens) (UniProt P41594). The experiment in a line: Negative allosteric modulation of mGlu5 receptor (unknown origin) up to 30 uM.
The target in series [17] is Sodium-dependent dopamine transporter (Homo sapiens) (UniProt Q01959). The experiment in a line: Binding affinity to human DAT at 10 uM by radioligand displacement assay relative to control.
Series [18] has as its system Plasma. The experiment in a line: Fraction unbound in mouse plasma at 5 uM after 4 hrs by LC/MS/MS analysis. Format: ADME, cell-free.
Series [19] addresses Metabotropic glutamate receptor 8 (Homo sapiens) (UniProt O00222). Put plainly: Negative allosteric modulation of mGlu8 receptor (unknown origin) up to 30 uM.
The species entered for the next series is Homo sapiens. Put plainly: Selectivity ratio of IC50 for human mGlu2 receptor to IC50 for human mGlu3 receptor.

Sequence of Metabotropic glutamate receptor 2 (P31421 whole entry): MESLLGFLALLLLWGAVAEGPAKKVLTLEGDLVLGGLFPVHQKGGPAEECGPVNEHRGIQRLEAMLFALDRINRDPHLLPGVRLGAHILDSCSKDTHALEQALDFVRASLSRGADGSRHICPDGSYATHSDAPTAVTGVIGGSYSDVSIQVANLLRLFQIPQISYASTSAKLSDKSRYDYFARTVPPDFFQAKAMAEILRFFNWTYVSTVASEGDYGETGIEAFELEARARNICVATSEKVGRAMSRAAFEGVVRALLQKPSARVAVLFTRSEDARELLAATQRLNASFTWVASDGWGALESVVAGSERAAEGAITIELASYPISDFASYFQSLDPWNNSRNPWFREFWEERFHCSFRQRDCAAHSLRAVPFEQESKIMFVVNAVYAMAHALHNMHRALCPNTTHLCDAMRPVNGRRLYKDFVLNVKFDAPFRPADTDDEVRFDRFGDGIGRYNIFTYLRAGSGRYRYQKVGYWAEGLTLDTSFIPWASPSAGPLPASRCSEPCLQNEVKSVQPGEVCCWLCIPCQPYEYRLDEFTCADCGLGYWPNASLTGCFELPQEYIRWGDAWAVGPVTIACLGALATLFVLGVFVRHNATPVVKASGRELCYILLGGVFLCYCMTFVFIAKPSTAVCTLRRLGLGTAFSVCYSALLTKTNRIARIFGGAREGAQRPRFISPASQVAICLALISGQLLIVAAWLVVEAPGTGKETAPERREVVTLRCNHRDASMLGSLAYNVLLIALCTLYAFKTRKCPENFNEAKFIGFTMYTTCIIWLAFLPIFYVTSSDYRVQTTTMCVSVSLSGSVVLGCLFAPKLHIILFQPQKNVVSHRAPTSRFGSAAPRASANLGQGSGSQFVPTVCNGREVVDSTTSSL
Sequence of Metabotropic glutamate receptor 3 (Rattus norvegicus) (P31422 23-879 limits assumed): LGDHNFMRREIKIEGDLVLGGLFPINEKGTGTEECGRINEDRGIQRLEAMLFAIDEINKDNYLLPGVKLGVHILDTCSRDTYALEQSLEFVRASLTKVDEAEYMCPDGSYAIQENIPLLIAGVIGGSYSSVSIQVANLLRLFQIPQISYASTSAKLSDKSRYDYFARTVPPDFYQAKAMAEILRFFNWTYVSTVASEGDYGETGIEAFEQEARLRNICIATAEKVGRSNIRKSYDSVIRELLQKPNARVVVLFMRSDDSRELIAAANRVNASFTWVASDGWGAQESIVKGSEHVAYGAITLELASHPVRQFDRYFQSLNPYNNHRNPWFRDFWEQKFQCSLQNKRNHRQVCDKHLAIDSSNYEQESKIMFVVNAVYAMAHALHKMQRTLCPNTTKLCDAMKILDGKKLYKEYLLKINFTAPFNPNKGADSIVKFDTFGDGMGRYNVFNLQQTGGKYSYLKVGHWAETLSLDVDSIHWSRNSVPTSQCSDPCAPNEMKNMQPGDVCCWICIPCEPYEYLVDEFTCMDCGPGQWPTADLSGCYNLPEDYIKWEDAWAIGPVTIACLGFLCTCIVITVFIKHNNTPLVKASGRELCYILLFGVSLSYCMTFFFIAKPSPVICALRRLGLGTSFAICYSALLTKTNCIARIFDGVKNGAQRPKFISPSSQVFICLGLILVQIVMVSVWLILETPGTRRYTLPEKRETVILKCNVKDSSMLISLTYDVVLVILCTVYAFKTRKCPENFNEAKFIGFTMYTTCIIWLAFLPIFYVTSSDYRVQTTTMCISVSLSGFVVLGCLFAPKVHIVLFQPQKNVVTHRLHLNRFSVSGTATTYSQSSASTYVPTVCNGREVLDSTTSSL
Sequence of Metabotropic glutamate receptor 3 (P31422 whole entry): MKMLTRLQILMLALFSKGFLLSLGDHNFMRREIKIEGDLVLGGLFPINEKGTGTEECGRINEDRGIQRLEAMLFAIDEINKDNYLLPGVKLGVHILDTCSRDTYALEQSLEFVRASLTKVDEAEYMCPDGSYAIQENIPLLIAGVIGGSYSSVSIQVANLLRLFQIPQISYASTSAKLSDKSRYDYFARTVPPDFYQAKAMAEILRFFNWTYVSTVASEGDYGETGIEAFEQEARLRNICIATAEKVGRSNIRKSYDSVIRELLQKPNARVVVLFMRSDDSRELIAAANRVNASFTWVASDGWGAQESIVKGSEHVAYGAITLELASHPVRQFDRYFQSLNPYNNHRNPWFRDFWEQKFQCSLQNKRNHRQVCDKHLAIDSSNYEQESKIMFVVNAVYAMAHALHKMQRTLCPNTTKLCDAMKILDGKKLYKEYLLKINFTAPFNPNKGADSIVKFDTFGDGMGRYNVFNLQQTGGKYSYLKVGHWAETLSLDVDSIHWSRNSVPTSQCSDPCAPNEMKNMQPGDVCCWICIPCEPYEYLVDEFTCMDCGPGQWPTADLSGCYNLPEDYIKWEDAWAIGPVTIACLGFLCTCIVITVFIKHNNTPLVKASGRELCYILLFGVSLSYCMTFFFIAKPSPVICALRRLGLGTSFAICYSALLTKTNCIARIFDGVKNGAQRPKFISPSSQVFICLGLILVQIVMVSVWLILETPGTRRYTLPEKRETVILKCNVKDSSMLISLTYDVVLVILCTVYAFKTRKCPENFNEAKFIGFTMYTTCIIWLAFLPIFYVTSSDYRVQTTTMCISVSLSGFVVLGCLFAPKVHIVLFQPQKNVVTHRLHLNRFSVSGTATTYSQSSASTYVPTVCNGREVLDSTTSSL
Sequence of Metabotropic glutamate receptor 1 (Homo sapiens) (Q13255 19-1194 limits assumed): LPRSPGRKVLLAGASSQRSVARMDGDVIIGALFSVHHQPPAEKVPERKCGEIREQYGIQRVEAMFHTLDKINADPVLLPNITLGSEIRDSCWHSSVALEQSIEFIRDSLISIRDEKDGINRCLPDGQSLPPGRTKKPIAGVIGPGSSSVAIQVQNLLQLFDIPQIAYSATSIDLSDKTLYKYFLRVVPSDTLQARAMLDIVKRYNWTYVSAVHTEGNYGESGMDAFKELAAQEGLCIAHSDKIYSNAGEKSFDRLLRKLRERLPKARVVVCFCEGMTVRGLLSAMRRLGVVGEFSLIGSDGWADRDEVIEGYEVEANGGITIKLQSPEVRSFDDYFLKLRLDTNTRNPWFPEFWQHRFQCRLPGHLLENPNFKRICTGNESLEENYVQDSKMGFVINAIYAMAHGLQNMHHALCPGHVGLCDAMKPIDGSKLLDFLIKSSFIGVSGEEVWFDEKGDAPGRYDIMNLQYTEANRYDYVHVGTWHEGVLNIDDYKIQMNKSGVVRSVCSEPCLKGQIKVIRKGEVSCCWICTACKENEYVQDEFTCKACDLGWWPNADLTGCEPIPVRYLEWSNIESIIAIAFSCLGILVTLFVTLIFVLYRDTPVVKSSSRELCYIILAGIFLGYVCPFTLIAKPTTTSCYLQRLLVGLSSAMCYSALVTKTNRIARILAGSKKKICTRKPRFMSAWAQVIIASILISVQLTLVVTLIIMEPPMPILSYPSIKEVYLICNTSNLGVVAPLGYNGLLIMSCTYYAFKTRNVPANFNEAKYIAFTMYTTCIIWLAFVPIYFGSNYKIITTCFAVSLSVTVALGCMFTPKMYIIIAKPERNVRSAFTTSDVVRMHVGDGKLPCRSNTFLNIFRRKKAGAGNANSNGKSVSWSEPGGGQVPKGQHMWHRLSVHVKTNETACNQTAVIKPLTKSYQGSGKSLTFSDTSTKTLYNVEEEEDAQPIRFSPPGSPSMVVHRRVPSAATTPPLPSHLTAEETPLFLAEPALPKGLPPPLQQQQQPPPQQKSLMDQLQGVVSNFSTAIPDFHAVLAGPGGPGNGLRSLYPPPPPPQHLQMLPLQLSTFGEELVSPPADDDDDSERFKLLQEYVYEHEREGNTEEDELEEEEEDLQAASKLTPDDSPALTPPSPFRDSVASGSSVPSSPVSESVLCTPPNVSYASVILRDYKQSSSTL
Sequence of Metabotropic glutamate receptor 6 (Homo sapiens) (O15303 whole entry): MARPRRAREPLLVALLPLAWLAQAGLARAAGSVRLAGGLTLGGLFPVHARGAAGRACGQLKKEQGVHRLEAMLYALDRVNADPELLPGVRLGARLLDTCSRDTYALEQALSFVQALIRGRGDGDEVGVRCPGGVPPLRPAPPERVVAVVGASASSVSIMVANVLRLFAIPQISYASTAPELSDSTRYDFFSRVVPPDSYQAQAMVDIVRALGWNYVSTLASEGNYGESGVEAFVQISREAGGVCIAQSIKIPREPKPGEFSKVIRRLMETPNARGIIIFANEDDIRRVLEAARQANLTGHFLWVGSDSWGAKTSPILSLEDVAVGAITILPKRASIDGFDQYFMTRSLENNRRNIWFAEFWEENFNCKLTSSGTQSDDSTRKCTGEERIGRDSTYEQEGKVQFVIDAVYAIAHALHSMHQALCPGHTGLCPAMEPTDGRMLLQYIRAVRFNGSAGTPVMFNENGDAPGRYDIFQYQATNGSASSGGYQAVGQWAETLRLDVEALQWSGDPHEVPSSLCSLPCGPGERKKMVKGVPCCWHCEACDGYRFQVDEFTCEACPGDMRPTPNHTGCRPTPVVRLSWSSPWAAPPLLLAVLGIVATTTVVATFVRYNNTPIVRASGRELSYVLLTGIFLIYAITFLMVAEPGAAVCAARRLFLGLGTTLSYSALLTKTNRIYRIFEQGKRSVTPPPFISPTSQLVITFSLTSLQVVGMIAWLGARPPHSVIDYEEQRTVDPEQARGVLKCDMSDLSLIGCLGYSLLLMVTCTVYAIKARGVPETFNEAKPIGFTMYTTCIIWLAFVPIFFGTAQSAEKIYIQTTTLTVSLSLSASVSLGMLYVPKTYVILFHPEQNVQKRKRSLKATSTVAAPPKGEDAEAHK

Take `CC(C)Oc1ccc(C#Cc2ccc(C(=O)N3CCC[C@@H](CO)C3)cc2)cc1`: the IC50 in [1] (read-out: IC50) is above 10 µM.
Turning to `COc1ccc(C#Cc2ccc(C(=O)N3CC[C@H](O)C3)cc2)cc1`, the IC50 in series [1] (read-out: pIC50 (converted)) was 27.5 µM; in series [2], above 30 µM.
In the case of `COc1ccc(C#Cc2ccc(C(=O)NC(C)CO)cc2)cc1` (stereo unspecified), the Activity in series [3] was 1.6%. Besides, the IC50 in [1] (read-out: pIC50 (converted)) is 7.59 µM; in series [2], above 30 µM.
In the case of `COc1ccc(C#Cc2ccc(C(=O)N3CC[C@@H](O)C3)cc2)cc1`, in series [3], the Activity came out at 0%. In addition, the values for the IC50 in series [1] (read-out: pIC50 (converted)) and in [2] were 10.2 µM and above 30 µM, respectively.
For the molecule `COc1ccc(C#Cc2ccc(C(=O)N3CCC(CO)C3)cc2)cc1` (stereo unspecified), in series [3], the Activity was found to be 0%. The IC50 in [1] (read-out: pIC50 (converted)) is 7.59 µM; in series [2], above 30 µM.
As for `O=C(c1ccc(C#Cc2ccc3c(c2)OCCO3)cc1)N1CCC[C@@H](CO)C1`, the IC50 in series [1] (read-out: IC50) is above 10 µM.
As for `[2H]C([2H])([2H])Oc1ccc(C#Cc2ccc(C(=O)N3CCC[C@@H](O)C3)c(F)c2)cc1`, the IC50 in series [1] (read-out: IC50) amounted to 0.45 µM.
As to `COc1ccc(C#Cc2ccc(C(=O)N3CCC[C@@H](O)C3)cc2F)cc1`, in series [3], the Activity was determined as 1.64%. The IC50 was 0.456 µM in series [1] (read-out: IC50) and above 30 µM in series [2].
With `COc1ccc(C#Cc2ccc(C(=O)N3CC4CCC(=O)C4C3)cc2)cc1` (stereo unspecified), the Activity in series [3] amounted to 1.6%. Moreover, the IC50 in [1] (read-out: pIC50 (converted)) was 2.75 µM; in series [2], above 30 µM.
Regarding `COc1ccc(C#Cc2ccc(C(=O)N3CCC[C@@H](CO)C3)cc2)cn1`, the IC50 in [1] (read-out: IC50) was above 10 µM.
Consider `O=C(c1ccc(C#Cc2ccc(Oc3ccccc3)cc2)cc1)N1CCC[C@@H](CO)C1`, for which the IC50 in series [1] (read-out: IC50) was above 10 µM.
Consider `COc1ccc(C#Cc2ccc(C(=O)N3CCC[C@@H](O)C3)c(F)c2)cc1`, for which the values for the Fu in the series on Plasma [4], in the series with Plasma [7] and in the series on Plasma [18] were 0.005, 0.03 and 0.027, respectively. Further, in the series on Liver microsomes, the Stability result is “Unstable”. The result in series [5], in series [9], in series [12], in [14], in series [16] and in series [19] was inactive. Besides, the Activity in series [3] worked out at 1.9%. In addition, the PPB with Plasma [6] and in the series on Plasma [10] was 97% each time. The IC50 against Cytochrome P450 1A2 is above 30 µM; in [1] (read-out: IC50), 0.593 µM; in series [1] (read-out: pIC50 (converted)), 0.603 µM; on Cytochrome P450 2D6, above 30 µM; at Cytochrome P450 2C9, above 30 µM; in series [2], above 30 µM. Also, the outcome in series [8] and in series [13] was Active. The same molecule yielded a solubility in [11] of 7.8 µM (≈ 2.76 µg/mL). Also, the inhibition stood at 74% in series [15] and 71% in [17].
Take `COc1ccc(-c2nnc(-c3ccc(C(=O)N4CCC[C@@H](CO)C4)cc3)o2)cc1`: the IC50 in series [1] (read-out: IC50) is above 10 µM.
Take `COc1ccc(C#Cc2ccc(C(=O)N3CCC[C@@H](CO)C3)cc2)c(F)c1F`: the IC50 in series [1] (read-out: IC50) was above 10 µM.
Regarding `COc1ccc(C#Cc2ccc(C(=O)N3CCCC(O)C3)cc2)cc1` (racemic), the Activity in series [3] was 0.4%. For the same molecule, the IC50 in series [1] (read-out: IC50) was 0.76 µM; in series [2], above 30 µM.
For the molecule `Clc1ccc(CN[C@H]2CCN(c3ncc(Br)cn3)C2)c(Cl)c1`, in the series filed under Homo sapiens, the Ratio IC50 is 4.
In the case of `COc1ccc(C#Cc2ccc(C(=O)N3CCCC(OC)C3)cc2)cc1` (stereo unspecified), the Activity in [3] stood at 0%. The IC50 in series [1] (read-out: pIC50 (converted)) was 5.5 µM; in [2] it was above 30 µM.
Take `COc1ccc(C#Cc2ccc(C(=O)N3CC4CCC(O)C4C3)cc2)cc1` (stereo unspecified): the Activity in [3] came out at 1.7%. Further, the IC50 in [1] (read-out: pIC50 (converted)) is 5.5 µM; in [2], above 30 µM.
Turning to `COc1ccc(C#Cc2ccc(C(=O)N3CCC[C@@H](CO)C3)cc2)cc1F`, the IC50 in series [1] (read-out: IC50) is above 10 µM.
As for `COc1ccc(C#Cc2ccc(C(=O)N3CCCC(C)(O)C3)cc2)cc1` (stereo unspecified), in series [3], the Activity is -0.13%. For the same molecule, the IC50 is 0.711 µM in [1] (read-out: IC50) and above 30 µM in series [2].
`COc1ccc(C#Cc2ccc(C(=O)N3CCC[C@@H](O)C3)cc2)cc1`: in [3], the Activity worked out at 2%. Besides, the figures for the IC50 in [1] (read-out: IC50) and in [2] were 0.65 µM and above 30 µM, respectively.
As to `COc1ccc(C#Cc2ccc(C(=O)N3CCC[C@@H](CO)C3)cc2)c(F)c1`, the IC50 in series [1] (read-out: IC50) is above 10 µM.
Consider `O=C(c1ccc(C#Cc2ccc(O)cc2)cc1)N1CCC[C@@H](CO)C1`, for which, in [1] (read-out: IC50), the IC50 was above 10 µM.
Take `CSc1ccc(C#Cc2ccc(C(=O)N3CCC[C@@H](CO)C3)cc2)cc1`: the IC50 in series [1] (read-out: IC50) was above 10 µM.
In the case of `[2H]C([2H])([2H])Oc1ccc(C#Cc2ccc(C(=O)N3CCC[C@@H](O)C3)cc2)cc1`, the IC50 in series [1] (read-out: IC50) came to 0.31 µM.
In the case of `O=C(c1ccc(C#Cc2ccc(OC(F)(F)F)cc2)cc1)N1CCC[C@@H](CO)C1`, the IC50 in series [1] (read-out: IC50) is above 10 µM.
As for `COc1ccc(C#Cc2ccc(C(=O)N3CCC[C@H](O)C3)cc2)cc1`, the Activity in [3] worked out at 1.7%. For the same molecule, the IC50 in series [1] (read-out: IC50) is 1.1 µM; in [2], above 30 µM.
For the molecule `CCOc1ccc(C#Cc2ccc(C(=O)N3CCC[C@@H](CO)C3)cc2)cc1`, in series [1] (read-out: IC50), the IC50 was above 10 µM.
As to `O=C(c1ccc(C#Cc2ccc3c(c2)OCO3)cc1)N1CCC[C@@H](CO)C1`, the IC50 in series [1] (read-out: IC50) was above 10 µM.
For the molecule `COc1ccc(C#Cc2ccc(C(=O)N3CCC[C@@H](CO)C3)cc2)cc1`, the IC50 in series [1] (read-out: IC50) was above 10 µM.

(Values after ChEMBL document CHEMBL2384940, “Discovery of (R)-(2-fluoro-4-((-4-methoxyphenyl)ethynyl)phenyl) (3-hydroxypiperidin-1-yl)methanone (ML337), an mGlu3 selective and CNS penetrant negative allosteric modulator (NAM)” (J Med Chem, 2013).)
